Laboratory results: patent US20100240537A1, “Substituted 6-(alkylbenzylamino)purine derivatives for use as cytokinin receptor antagonists and preparations containing these derivatives” (priority 2007, published 2010)
pEC50: −log10 of the molar value. Where two headings read alike, the source gives them in different places.

Key:
[1] = tested on: erytroid leukemia cell line K-562; experiment: Calcein AM cytotoxicity assay, K-562; type: cell-based, human; conditions: Homo sapiens, K562, 72 hours
Excerpt: (§1) Absence of toxic effects against mammalian (especially human) cell lines in a wide concentration range is one of the requirements on compounds intended for use in agriculture. Because toxic compounds negatively influence metabolic processes in cells, many standard cytotoxicity assays are based on measurement of metabolisation rate of various artificial substrates. Resulting product is then quantified e.g. by means of spectrometry. The assays can be easily modified for use in 96-well plates. For evaluation of cytotoxic effect of the novel substituted 6-(alkylbenzylamino)purine derivatives of this invention, a microtiter assay based on quantification of metabolisation of Calcein AM was used. The assay is widely used in drug screening programs and in chemosensitivity testing. In live cells, Calcein AM is enzymatically hydrolysed and accumulation of resulting calcein is manifested by green fluorescence.
(§2) The cells were maintained in Nunc/Corning 80 cm^2 plastic tissue culture flasks and cultured in cell culture medium (DMEM with 5 g/l glucose, 2 mM glutamine, 100 U/ml penicillin, 100 μg/ml streptomycin, 10% fetal calf serum and sodium bicarbonate).
(§3) The cell suspensions were prepared and diluted according to the particular cell type and the expected target cell density (10^4 cells per well based on cell growth characteristics) and pippetted (80 μl) into 96-well plates. Inoculates were allowed a pre-incubation period of 24 hours at 37° C., 100% humidity and 5% CO2 for stabilisation. Tested compounds were added in total volume of 20 μl of water at time zero. Usually, test compound was evaluated at six 3-fold dilutions. In routine testing, the highest concentration tested was 100 μM, the eventual changes depended on physico-chemical characteristics of the respective compound. All drug concentrations were tested in triplicates. Incubations of cells with the test compounds lasted for 72 hours at 37° C., in 5% CO2 atmosphere and 100% humidity. At the end of incubation period Calcein AM (Molecular Probes) in PBS was added into final concentration of 1 μg/ml. After another 1 hour of incubation fluorescence (FD) was measured with the Labsystem FIA Reader Fluoroscan Ascent (UK). Growth inhibition (GI) was estimated using the following equitation: GI=(mean FDdrug exposed wells−mean FDblank)/(mean FDcontrol wells−mean FDblank)×100%.

[2] = target: T1, AHK3 (Arabidopsis thaliana, UniProt Q9C5U1); experiment: Activation of cytokinin receptor AHK3 in E. coli KMI001 (β-galactosidase reporter); type: cell-based
T1 construct: expressed in transfected cells; host or cells: Escherichia coli KMI001, plasmid pSTV28-AHK3
T1 sequence (Q9C5U1 1-1036): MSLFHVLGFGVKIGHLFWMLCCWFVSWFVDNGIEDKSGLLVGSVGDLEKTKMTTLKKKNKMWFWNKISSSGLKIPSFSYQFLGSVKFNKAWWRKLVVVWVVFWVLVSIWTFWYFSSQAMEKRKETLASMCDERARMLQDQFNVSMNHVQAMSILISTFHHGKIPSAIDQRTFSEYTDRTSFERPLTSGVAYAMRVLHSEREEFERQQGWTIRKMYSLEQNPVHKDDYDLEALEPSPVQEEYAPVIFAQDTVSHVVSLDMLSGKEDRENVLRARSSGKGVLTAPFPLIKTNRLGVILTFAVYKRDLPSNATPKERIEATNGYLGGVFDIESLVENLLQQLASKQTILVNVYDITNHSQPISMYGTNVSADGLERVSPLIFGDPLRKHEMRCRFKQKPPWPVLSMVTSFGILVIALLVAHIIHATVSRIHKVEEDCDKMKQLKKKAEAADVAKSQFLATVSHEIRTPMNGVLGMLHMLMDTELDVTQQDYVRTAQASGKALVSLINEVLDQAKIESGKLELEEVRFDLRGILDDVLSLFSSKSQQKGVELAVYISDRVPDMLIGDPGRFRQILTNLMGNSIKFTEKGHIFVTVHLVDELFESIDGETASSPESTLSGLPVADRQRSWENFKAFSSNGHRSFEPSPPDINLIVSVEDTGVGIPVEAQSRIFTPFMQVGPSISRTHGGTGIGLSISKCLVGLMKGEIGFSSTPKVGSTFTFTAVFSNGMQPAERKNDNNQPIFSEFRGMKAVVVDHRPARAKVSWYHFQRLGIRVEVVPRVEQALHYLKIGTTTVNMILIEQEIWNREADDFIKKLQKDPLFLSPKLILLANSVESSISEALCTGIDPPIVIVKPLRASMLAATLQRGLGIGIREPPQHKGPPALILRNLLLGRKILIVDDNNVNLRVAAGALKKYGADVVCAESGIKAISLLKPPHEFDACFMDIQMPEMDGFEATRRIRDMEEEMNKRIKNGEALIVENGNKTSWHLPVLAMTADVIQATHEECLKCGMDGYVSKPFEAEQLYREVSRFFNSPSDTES
Method: (§4) Escherichia coli strains KMI001 harbouring the plasmid pIN-III-AHK4 or pSTV28-AHK3 were grown overnight at 25° C. in M9 media enriched with 0.1% casamino acids to OD600˜1. The preculture was diluted 1:600 in 1 ml M9 medium containing 0.1% casamino acids and 1 μl stock solution of either the tested compound (10^−7 M−5×10^−5 M) or solvent control (DMSO, ethanol, methanol) were added. The cultures were further grown at 25° C. in microtiter plate, 200 μl per well. […] The cultures were centrifuged and 50 μl aliquots of the supernatant were transferred to microtiter plate containing 2 μl 50 mM 4-methyl umbelliferyl galactoside which was subsequently incubated for 1 h at 37° C. The reaction was stopped by adding 100 μl 0.2 M Na2CO3. Fluorescence was measured using a Fluoroscan Ascent (Labsystems, Finland) at the excitation and emission wavelengths of 365 and 460 nm, respectively. The OD600 of remaining culture was determined and β-galactosidase activity was calculated as nmol 4-methylumbelliferone×OD600^−1×h^−1.
(§5) The EC50 value, the compound concentration activating the receptor to 50%, was calculated from the obtained dose response curves. The compound functioning as cytokinin antagonists should not activate cytokinin signalling pathway. The values shown in Table 2 are means of three replicates and the entire test was repeated at least twice.

[3] = target: T2, CRE1/AHK4 (Arabidopsis thaliana, UniProt Q9C5U0); experiment: Activation of cytokinin receptor CRE1/AHK4 in E. coli KMI001 (β-galactosidase reporter); type: cell-based; conditions: for EC50 CRE1/AHK4 (activation of cytokinin receptor): E. coli KMI001 pIN-III-AHK4, 17 h incubation, n.i. means without interaction
T2 construct: expressed in transfected cells; host or cells: Escherichia coli KMI001, plasmid pIN-III-AHK4
Method: as §4, §5

[4] = tested on: human diploid fibroblasts BJ; experiment: Calcein AM cytotoxicity assay, BJ; type: cell-based; conditions: Homo sapiens, Fibroblast, 72 hours
Excerpt: as §1, §2, §3

[5] = E. coli KMI001 pSTV28-AHK3, 28 h incubation, n.i. means without interaction, read-out: EC50 AHK3 (activation of cytokinin receptor)

T2 sequence (Q9C5U0 whole entry): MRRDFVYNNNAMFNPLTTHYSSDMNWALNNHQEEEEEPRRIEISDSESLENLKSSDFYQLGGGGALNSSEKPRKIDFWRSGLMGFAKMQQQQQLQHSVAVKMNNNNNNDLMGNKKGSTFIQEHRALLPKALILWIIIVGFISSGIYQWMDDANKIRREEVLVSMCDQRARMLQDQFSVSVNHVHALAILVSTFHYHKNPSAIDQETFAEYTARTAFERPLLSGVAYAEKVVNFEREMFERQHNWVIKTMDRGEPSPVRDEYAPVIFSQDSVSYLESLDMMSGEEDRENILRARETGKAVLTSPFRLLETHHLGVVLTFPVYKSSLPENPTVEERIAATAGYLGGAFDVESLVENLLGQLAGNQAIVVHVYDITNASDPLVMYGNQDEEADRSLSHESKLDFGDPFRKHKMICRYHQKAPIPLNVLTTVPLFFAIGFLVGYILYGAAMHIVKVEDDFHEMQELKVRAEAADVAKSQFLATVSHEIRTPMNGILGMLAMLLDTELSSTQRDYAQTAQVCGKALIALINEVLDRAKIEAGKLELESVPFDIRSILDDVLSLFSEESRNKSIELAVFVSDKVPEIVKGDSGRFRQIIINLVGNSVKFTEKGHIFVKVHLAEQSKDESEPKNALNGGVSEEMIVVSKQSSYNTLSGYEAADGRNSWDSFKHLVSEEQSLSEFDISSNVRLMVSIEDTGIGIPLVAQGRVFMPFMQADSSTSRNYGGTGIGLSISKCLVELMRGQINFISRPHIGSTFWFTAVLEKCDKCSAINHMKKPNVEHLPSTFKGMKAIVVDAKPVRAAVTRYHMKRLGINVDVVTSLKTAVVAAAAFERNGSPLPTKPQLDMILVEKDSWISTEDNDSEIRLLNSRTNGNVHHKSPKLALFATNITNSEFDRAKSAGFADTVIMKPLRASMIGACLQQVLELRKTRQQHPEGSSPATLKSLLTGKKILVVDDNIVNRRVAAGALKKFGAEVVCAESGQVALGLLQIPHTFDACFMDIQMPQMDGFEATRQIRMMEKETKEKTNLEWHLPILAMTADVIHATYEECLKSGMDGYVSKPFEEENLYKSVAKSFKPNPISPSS

Row | SMILES | GI50 [1] [µM] | pEC50 [2] | pEC50 [3] | GI50 [4] [µM] | pEC50 [2, 5] | EC50 CRE1/AHK4 (activation of cytokinin receptor) [3]
1 | c1ccc(CNc2ncnc3nc[nH]c23)cc1 [6-(benzylamino)purine] | > 100 | 4.74 | 4.71 | > 100 |  | 
2 | Cc1cccc(CNc2ncnc3nc[nH]c23)c1O [Compound 8, 6-(2-hydroxy-3-methylbenzylamino)purine] | > 50 |  |  | > 50 | < 4.00 | n.i.
3 | Cc1ccc(O)c(CNc2ncnc3nc[nH]c23)c1 [Compound 10, 6-(2-hydroxy-5-methylbenzylamino)purine] | > 100 |  |  | > 100 | < 4.00 | n.i.
